Measurements from patent US11633443B2, “Algal extract comprising sulphated and non-sulphated polyanionic polysaccharides and uses thereof” (Amadeite, priority 2012, dated 2023).
Entries after “also recorded” stand apart in the source; their conditions may differ. Structures can show the parent of a compound that is named as a salt.

Test system: adult male Wistar rats
Experiment: Behavioural despair test (BDT)
Format: in vivo, rat
Method: The anti-depressant effects of an algal extract according to the invention (AE), administered orally as a preventive treatment with 3 doses (10, 20 and 40 mg/kg/d) were evaluated in adult male Wistar rats in the behavioural despair test (BDT).
The extract was daily administered as a semi-chronic treatment for 14 days. The effects of the extract were evaluated in the BDT on groups of 12 rats as compared with a control batch treated with the carrier (spring water) and a reference batch treated with Imipramine at the dose of 10 mg/kg/d.
Sixty male Wistar rats (Charles River Laboratories, France) weighing from 200-225 g were used. Upon receiving them, the rats were marked and distributed in groups of 4 in polycarbonate cages of the F type (48×27×20 cm, U.A.R., 91-Epinay-Sur-Orge, France). The animals were housed in an air-conditioned animal housing facility, at a temperature of 22±2° C. and a relative humidity of 50±20%. The rats had standard feed 2016 (Harlan, Gannat, France) and drink ad libitum. They were subject to a reverse light-darkness cycle of 12 hours.
After getting used to the conditions of the laboratory for one week, the rats were weighed and randomized according to their weight in 5 treatment groups (n=12/group).
The experimental devices consisted in Plexiglas cylinders with a height of 50 cm and a diameter of 20 cm filled with water at 25° C. up to a height of 30 cm.
After 13 days of daily treatment with the products to be tested, the rats were placed at D14 in the devices for a period of 15 minutes in order to evaluate the immobility time of each animal. Immediately after this first test, the rats received their 14th treatment.
At D15, the rats received two treatments: the first, 5 hours before the test and the second 1 hour before the test. This procedure is usually used in the literature for testing the efficiency of a product against depression. The test was conducted under the same conditions as the day before for a period of 5 minutes.
The recorded immobility duration during the first 5 minutes of both tests (at D14 and D15) reflects the capacity of the animal of resigning itself when it is confronted with a situation from which it cannot escape. This resignation behaviour is assimilated with depression.
The product is an AE (algal extract) as a powder representing a freeze-dried and crushed concentrated fraction of a water-soluble algal extract prepared according to Example no. 1. The extract to be tested was dissolved in spring water and was administered to the rats orally at one of the 3 tested doses for 15 successive days with an administration volume of 5 ml/kg. The animals were weighed every two or three days in order to adapt their specific treatments to their weight. Their food and water intakes were noted every two or three days during the whole duration of the study.
The animals of the Reference group receive daily 10 mg/kg/d of Imipramine hydrochloride (Sigma Aldrich) dissolved in spring water with an administration volume of 5 ml/kg.
ANOVA in parametric mode was applied, followed, in the case of heterogeneity, by comparisons by means of the non-paired t-test for comparing the treated groups with the Carrier group and the Reference group.
Paired ANOVA was used, followed, in the case of heterogeneity, by comparisons with the paired t-test for two by two comparisons of repeated measurements of BDT in each of the groups.

For `CN(C)CCCN1c2ccccc2CCc2ccccc21` [Imipramine, Imipramine hydrochloride], the “immobility time at D15 compared with the Carrier (in words)” value (10 mg/kg/d) was “significantly shorter”, the “Immobility duration in the behavioural despair test at D15 (Average ± ESM)” value (10 mg/kg/d orally, 5 minutes test, n = 12) was 3.8 ± 1.0 s and the “Immobility duration in the behavioural despair pre-test at D14 (Average ± SME)” value (10 mg/kg/d orally, first 5 minutes, n = 12) was 16.3 ± 4.6 s. The “change of immobility time between D14 and D15 (in words)” value (10 mg/kg, hydrochloride) was “significantly decrease; also recorded: significantly reduced” and the “immobility duration at D14: difference between Carrier, Imipramine and AE groups” value (Imipramine 10 mg/kg, AE at the three tested doses (10, 20, 40 mg/kg)) was “no significant difference”.
